The source of these data is patent US20180057505A1, “BICYCLIC HETEROARYL COMPOUNDS USEFUL AS INHIBITORS OF THE PAR-2 SIGNALING PATHWAY” (VERTEX PHARMACEUTICALS INCORPORATED, priority 2015, published 2018).

Common to all, as to format: cell-based
Test [1] deals with Thrombin-stimulated Ca2+ response in HT-29 cells. Kind of test: Ca FLIPR TETRA assay, ANTAGONIST mode, activator 1 U/mL Thrombin. The following applies: HT-29 cells, activator 1 U/mL Thrombin. In a few lines: (§1)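 Inhibition of agonist-evoked calcium signals was measured in human HT-29 colon cells cultured overnight in 1% FBS McCoy's medium. Test compounds preincubated 30 min at r.t.; activators at final concentrations as stated for each readout.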

For test [2], the system named is UTP-stimulated Ca2+ response in HT-29 cells. Briefly: Ca FLIPR TETRA assay, ANTAGONIST mode, activator 0.6 μM UTP. As to conditions: HT-29 cells, activator 0.6 μM UTP. In a few lines: as §1
The target in test [3] is T1, PAR2 (HT-29 cells) (Homo sapiens, UniProt P55085).
T1 construct: host or cells: HT-29
T1 sequence (P55085 26-397): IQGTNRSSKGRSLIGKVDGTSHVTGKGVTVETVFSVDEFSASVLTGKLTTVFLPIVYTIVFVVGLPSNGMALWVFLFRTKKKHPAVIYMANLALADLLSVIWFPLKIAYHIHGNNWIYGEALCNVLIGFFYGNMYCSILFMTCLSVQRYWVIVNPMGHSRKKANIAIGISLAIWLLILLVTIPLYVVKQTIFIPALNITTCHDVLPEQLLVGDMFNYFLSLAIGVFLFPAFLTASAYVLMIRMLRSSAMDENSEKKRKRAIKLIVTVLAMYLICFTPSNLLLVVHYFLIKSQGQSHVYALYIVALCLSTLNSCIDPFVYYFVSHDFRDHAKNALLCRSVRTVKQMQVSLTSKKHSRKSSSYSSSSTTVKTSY
Briefly: Ca FLIPR TETRA assay, ANTAGONIST mode, activator 8 μM SLIGKV. The following applies: HT-29 cells; activator 8 μM SLIGKV; Method A: maximal concentration of antagonist 0.1, 1 or 2 μM. In a few lines:
as §1

In test [4] the target is T1, PAR2 (HT-29 cells). Briefly: Ca FLIPR TETRA assay, ANTAGONIST mode, activator 3.1 U/mL trypsin. The following applies: HT-29 cells; activator 3.1 U/mL trypsin; Method A: maximal concentration of antagonist 0.1, 1 or 2 μM. In a few lines: as §1

Take `CC(C)(C)c1cc(-c2ccc(Cl)c(F)c2)nc2cc(C(=O)N3CCN(c4ccncn4)CC3(C)C)oc12` [Example I-412]: the IC50 (commonly the point on the concentration scale where inhibition reaches its midpoint) in test [1] (Homo sapiens) is > 2000 nM; in test [2] (Homo sapiens), > 2000 nM; at PAR2 (HT-29 cells) [3] it was 13.1 nM; at PAR2 (HT-29 cells) [4], 15 nM.
For `CC1(C)CCC(c2cc(C(C)(C)C)c3oc(C(=O)N4CCN(c5ccc(C(=O)O)cn5)CC4(C)C)cc3n2)CC1` [Example I-413], the IC50 in test [1] (Homo sapiens) is 810 nM; in test [2] (Homo sapiens), 810 nM; on PAR2 (HT-29 cells) [3], 0.6 nM; at PAR2 (HT-29 cells) [4], 0.8 nM.
Take `CC1(C)CCC(c2cc(C(C)(C)C)c3oc(C(=O)N4CCN(c5ccnc(C(=O)O)n5)CC4(C)C)cc3n2)CC1` [Example I-414]: the IC50 in test [1] (Homo sapiens) was > 2000 nM; in test [2] (Homo sapiens), > 2000 nM; on PAR2 (HT-29 cells) [3], 8.5 nM; at PAR2 (HT-29 cells) [4], 16 nM.
Turning to `CC(C)(C)c1cc(-c2ccc(Cl)cc2)nc2cc(C(=O)N3CCN(c4ccnc(C(=O)O)n4)CC3(C)C)oc12` [Example I-415], the IC50 in test [1] (Homo sapiens) was > 2000 nM; in test [2] (Homo sapiens), > 2000 nM; on PAR2 (HT-29 cells) [3], 19 nM; on PAR2 (HT-29 cells) [4], 19 nM.
Consider `CC1(C)CCC(c2cc(C(C)(C)C)c3oc(C(=O)N4CCN(C(=O)CC(C)(C)C(=O)O)CC4(C)C)cc3n2)CC1` [Example I-416], for which the IC50 in test [1] (Homo sapiens) is > 1630 nM; in test [2] (Homo sapiens) it was > 1630 nM; at PAR2 (HT-29 cells) [3], 0.4 nM; on PAR2 (HT-29 cells) [4] it was 0.7 nM.
As for `CC(C)(CC(=O)N1CCN(C(=O)c2cc3nc(-c4ccc(Cl)c(F)c4)cc(C(C)(C)C)c3o2)C(C)(C)C1)C(=O)O` [Example I-417], the IC50 in test [1] (Homo sapiens) was > 1630 nM; in test [2] (Homo sapiens), > 1630 nM; at PAR2 (HT-29 cells) [3], 0.2 nM; on PAR2 (HT-29 cells) [4], 0.4 nM.
For `CC1(C)CCC(c2cc(C(C)(C)C)c3oc(C(=O)N4CCN(C(=O)CCC(=O)O)CC4(C)C)cc3n2)CC1` [Example I-418], the IC50 in test [1] (Homo sapiens) is > 1250 nM; in test [2] (Homo sapiens), > 1250 nM; at PAR2 (HT-29 cells) [3], 2.1 nM; at PAR2 (HT-29 cells) [4], 5.6 nM.
As to `CC(C)(C)c1cc(-c2ccc(Cl)c(F)c2)nc2cc(C(=O)N3CCN(C(=O)CCC(=O)O)CC3(C)C)oc12` [Example I-419], the IC50 in test [1] (Homo sapiens) is > 1250 nM; in test [2] (Homo sapiens) it was > 1250 nM; on PAR2 (HT-29 cells) [3], 1.1 nM; at PAR2 (HT-29 cells) [4], 3 nM.
For the molecule `CC(C)(C)c1cc(-c2ccc(Cl)cc2)nc2cc(C(=O)N3CCN(C(=O)CCC(=O)O)CC3(C)C)oc12` [Example I-420], the IC50 in test [1] (Homo sapiens) is > 1250 nM; in test [2] (Homo sapiens), > 1250 nM; on PAR2 (HT-29 cells) [3], 4.6 nM; on PAR2 (HT-29 cells) [4] it was 9.8 nM.
With `CC(C)(C)c1cc(-c2ccc(F)cc2)nc2cc(C(=O)N3CCN(c4cnc(C(=O)O)cn4)CC3(C)C)oc12` [Example I-421], the IC50 came out at 600 nM in test [1], 750 nM in test [2], 1.5 nM at PAR2 (HT-29 cells) [3] and 3.4 nM at PAR2 (HT-29 cells) [4].
With `CC(C)(C)c1cc(-c2ccc(Cl)c(F)c2)nc2cc(C(=O)N3CCC(C(=O)[C@H]4CC[C@@](C)(C(=O)O)CC4)CC3(C)C)oc12` (stereo partly drawn) [Example I-422], the IC50 came to 2000 nM in test [1], 1500 nM in test [2], 0.2 nM at PAR2 (HT-29 cells) [3] and 0.3 nM on PAR2 (HT-29 cells) [4].
In the case of `CC(C)(C)c1cc(-c2ccc(Cl)cc2)nc2cc(C(=O)N3CCN(C(=O)[C@H]4CC[C@@](C)(C(=O)O)CC4)CC3(C)C)oc12` [Example I-423], the IC50 was > 2000 nM in test [1] (Homo sapiens), > 2000 nM in test [2] (Homo sapiens), 0.4 nM on PAR2 (HT-29 cells) [3] and 0.7 nM on PAR2 (HT-29 cells) [4].
Regarding `CC(C)(C)c1cc(-c2ccc(Cl)c(F)c2)nc2cc(C(=O)N3CCC(c4nc(C(=O)O)cs4)CC3(C)C)oc12` (stereo not drawn) [Example I-424], the concentration for half-maximal inhibition (IC50) in test [1] amounted to 1800 nM; in test [2], 1200 nM; on PAR2 (HT-29 cells) [3] it was 0.1 nM; at PAR2 (HT-29 cells) [4] it was 0.3 nM.
As to `Cc1oc(C2CCN(C(=O)c3cc4nc(C5CCC(C)(C)CC5)cc(C(C)(C)C)c4o3)C(C)(C)C2)nc1C(=O)O` (stereo not drawn) [Example I-425], the IC50 in test [1] is > 2000 nM; in test [2], > 2000 nM; on PAR2 (HT-29 cells) [3], 0.3 nM; at PAR2 (HT-29 cells) [4], 0.4 nM.
With `CC(C)(C)c1cc(-c2ccc(Cl)cc2)nc2cc(C(=O)N3CCC(c4nc(C(=O)O)cs4)CC3(C)C)oc12` (stereo not drawn) [Example I-426], the IC50 in test [1] stood at 1800 nM; in test [2], 1300 nM; at PAR2 (HT-29 cells) [3] it was 0.1 nM; at PAR2 (HT-29 cells) [4], 0.1 nM.
